Details: female, human, in vivo, sc, 1 mg
Protocol: The presently disclosed embodiments may include a technology platform employing enteric coating and permeation enhancement to enable systemic delivery of peptides via the oral route. To determine whether the oral formulation described herein enables systemic delivery of therapeutic doses of the GnRH agonist leuprolide via oral route, a randomized, four-period, four-treatment, crossover pharmacokinetic and food effect study was conducted in 14 healthy female volunteers, which compared PK profiles following single administrations of 1 and 4 mg of leuprolide—the latter under both fasting and fed conditions—to that of a single subcutaneous injection of 1 mg of leuprolide acetate.
Study objectives were to assess the relative bioavailability, dose proportionality, safety and tolerability of orally-administered leuprolide, as well as the effect of food on drug absorption. Frequent blood sampling for 24 hours followed each dose, and each treatment was separated by 7 days. […] The ‘fed’ condition involved consumption of a high-fat, high-calorie meal 30 minutes prior to drug administration.

CCNC(=O)[C@@H]1CCCN1C(=O)[C@H](CCCNC(=N)N)NC(=O)[C@H](CC(C)C)NC(=O)[C@@H](CC(C)C)NC(=O)[C@H](Cc1ccc(O)cc1)NC(=O)[C@H](CO)NC(=O)[C@H](Cc1c[nH]c2ccccc12)NC(=O)[C@H](Cc1c[nH]cn1)NC(=O)[C@@H]1CCC(=O)N1 [sc leuprolide, leuprolide acetate]
Mean AUC0-24h: 163.0 ± 18.8 ng·h/mL
Mean Cmax: 59.4 ± 9.1 ng/mL
Mean Tmax: 3.49 ± 0.23 h

Reference: US20250073309A1, “METHODS OF TREATMENT OF PEDIATRIC PUBERTY USING ORAL FORMULATIONS OF LEUPROLIDE” (Enteris Biopharma, Inc., priority 2021, published 2025)
